≈ marks a conversion by molar mass, not a printed value.
Tested on: Fe-ADP-Ascorbate induced lipid peroxidation (LPO) in rat brain
Assay: Inhibition of Fe-ADP-ascorbate induced lipid peroxidation (LPO) in rat brain homogenate
Type: biochemical, Albino rats (Sprague Dawley strain)
Conditions: 37° C., 30 minutes
Protocol: Inhibition of Fe-ADP-Ascorbate Induced Lipid Peroxidation (LPO) in Rat Brain by DBP and DCPs
Albino rats (Sprague Dawley strain) were sacrificed by cervical dislocation and decapitation. Brains were dissected out and 10% w/v homogenate was prepared in 0.15 M KCl. The brain homogenate was centrifuged at 1500 rpm for 10 minutes and the supernatant was used for the study. The incubation mixture contained in a final volume of 1 ml., brain homogenate (500 μl), distilled water (100 μl) or test compounds dissolved in solvents at different concentrations (10 to 100 μg/ml of the final volume). Peroxidation was initiated by adding FeCl3 (100 μM), ADP (1 mM) and ascorbate (100 μM) to give the final concentration stated. After incubating at 37° C. for 30 minutes, the reaction was stopped by adding acetic acid buffer (1.5 ml, pH 3.5) and thiobarbituric acid solution (1.5 ml, pH 7.4) to 1 ml of LPO mixture. The reaction mixture was heated at 85° C. for 30 minutes, cooled, centrifuged (2000 rpm for 10 minutes) and the absorbance of the supernatant was measured at 532 nm. IC50 values were calculated in the usual way by plotting the concentration of the test compounds versus percent inhibition of LPO.

Going from `O=c1oc2cc(O)ccc2c2ccc(O)cc12` [3,8-Dihydroxydibenzo-alpha-pyrone] to `O=C1O[C@H]([C@@H](O)CO)C(O)=C1O` [Ascorbic acid], the “IC50 (effect on LPO)” value rises from 30 µg/mL (≈ 131 µM) to 70 µg/mL (≈ 397 µM) (2.3-fold).

With `CC(=O)Oc1c(C)c(C)c2c(c1C)CCC(C)(CCC[C@H](C)CCC[C@H](C)CCCC(C)C)O2` (stereo partly drawn) [Vitamin E acetate] the “IC50 (effect on LPO)” value was 56 µg/mL.
